From publication PMC10221175 come the findings set out here.

In data set [1] the test system is 5′-FAM-AT11-L0-TAMRA-3′ (DNA, G4) TGGTGGTGGTTGTTGGGTGGTGGTGGT
In words: FRET melting. The settings on record: 65 mM KCl, 20 mM potassium phosphate, pH 6.9, 0.2 µM DNA.

Data set [2] has as its system 5′-Cy5-AT11-L0 (DNA, G4) TGGTGGTGGTTGTTGGGTGGTGGTGGT
In words: fluorescence titration (Cy5 quenching), Hill model. The note with it: 65 mM KCl, 20 mM potassium phosphate; pH 6.9; 1 µM DNA; apparent.

The test system is the same in data set [3]. Briefly: fluorescence titration (Cy5 quenching), two-site model. The note with it: 65 mM KCl, 20 mM potassium phosphate; pH 6.9; 1 µM DNA; site 1 of 2; apparent.
The target in data set [4] is T1, nucleolin RBD1,2 (NCL RBD1,2) (UniProt P19338 307-466). In words: fluorescence titration (Cy5 quenching); ligand C8; two-site model, KD1; aptamer pre-annealed in 20 mM potassium phosphate pH 6.9, 65 mM KCl (95 C 10 min, ice 10 min); titration temperature not given in the material. The settings on record: protein: recombinant; label: 5'-Cy5; parallel G4, pre-folded in K+.
T1 sequence (P19338 307-466): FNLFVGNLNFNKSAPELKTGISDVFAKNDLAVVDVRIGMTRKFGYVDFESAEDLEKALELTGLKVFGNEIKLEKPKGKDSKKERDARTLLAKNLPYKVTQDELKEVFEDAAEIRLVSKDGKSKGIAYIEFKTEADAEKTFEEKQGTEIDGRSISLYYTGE

Data set [5] addresses T1, nucleolin RBD1,2 (NCL RBD1,2). Briefly: fluorescence titration (Cy5 quenching); ligand PhenDC3; two-site model, KD1; aptamer pre-annealed in 20 mM potassium phosphate pH 6.9, 65 mM KCl (95 C 10 min, ice 10 min); titration temperature not given in the material. The note with it: protein: recombinant; label: 5'-Cy5; parallel G4, pre-folded in K+.
Data set [6] shares this target. Briefly: fluorescence titration (Cy5 quenching); no ligand; two-site model, KD1; aptamer pre-annealed in 20 mM potassium phosphate pH 6.9, 65 mM KCl (95 C 10 min, ice 10 min); titration temperature not given in the material. The settings on record: protein: recombinant; label: 5'-Cy5; parallel G4, pre-folded in K+.

A word on the ΔTm: it is the shift of the melting midpoint relative to a reference. The Kd is a measure of binding affinity in units of concentration.

With `CN(C)c1ccc(Nc2c3ccc(NC(=O)CCN4CCCC4)cc3nc3cc(NC(=O)CCN4CCCC4)ccc23)cc1`, the ΔTm in data set [1] (1 µM compound (5 eq)) stood at 20.3 °C.
In the case of `CN(C)c1ccc2cc3ccc(N(C)C)cc3[n+](CCCCCCCCNC(=O)c3ccc(I)cc3)c2c1`, the KD in data set [2] turned out to be 22.1 nM. Further, in data set [1] (1 µM compound (5 eq)), the ΔTm is 19.6 °C.
In the case of `C[C@@H]1C[C@H]2[C@@H]3CCC4=CC(=O)C=C[C@]4(C)[C@@]3(F)[C@@H](O)C[C@]2(C)[C@@]1(O)C(=O)CO`, the ΔTm in data set [1] (0.2 µM compound (1 eq)) is 0.1 °C.
In the case of `C[n+]1cc(NC(=O)c2ccc3ccc4ccc(C(=O)Nc5cc6ccccc6[n+](C)c5)nc4c3n2)cc2ccccc21`, the KD1 in data set [3] came to 329 pM. Also, the ΔTm in data set [1] (1 µM compound (5 eq)) is above 30 °C.
Take `C[n+]1ccc(-c2c3nc(c(-c4cc[n+](C)cc4)c4ccc([nH]4)c(-c4cc[n+](C)cc4)c4nc(c(-c5cc[n+](C)cc5)c5ccc2[nH]5)C=C4)C=C3)cc1`: in data set [1] (1 µM compound (5 eq)), the ΔTm is 28 °C.
Consider `NCCOc1cc(C(=O)Nc2cc(OCCN)c3ccccc3n2)nc(C(=O)Nc2cc(OCCN)c3ccccc3n2)c1`, for which, in data set [1] (1 µM compound (5 eq)), the ΔTm was 26.9 °C.

B1: 5'-Cy5-AT11-L0 (structured_DNA)
DNA: TGGTGGTGGTTGTTGGGTGGTGGTGGT
For the molecule B1, the Kd was determined as 0.024 nM in data set [4], 0.02 nM in data set [5] and 0.012 nM in data set [6].
